The record followed here is BindingDB's records for doi:10.1016/j.bmc.2019.05.001 (2019).

The assay is described as follows: Inhibition of mouse GAT2 expressed in HEK293 cells assessed as reduction in [3H]GABA uptake preincubated for 25 mins followed by [3H]GABA addition and measured after 10 mins by liquid scintillation counting method.

On to `O=C(O)C1CCN(CCON=Cc2ccccc2-c2ccc(Cl)cc2Cl)C1` (stereo unspecified), for which the IC50 is 53.7 µM.

The term IC50 denotes the concentration that inhibits the measured activity by half.
